Laboratory results: patent US12156909B2, “Reverse peptide vaccine” (Emergex Vaccines Holding Limited, priority 2018, dated 2024)

Tests used:
HLA-A24 = experiment: HLA binding of NEG8 peptides shared with other flu proteins (Table 5), A24; details: no method or unit given
Text: (§1) was used to search datasets of T cell epitopes derived from influenza virus infected cells. The NEG8 peptides described in Examples 1 and 2 were also identified using this search. The purpose of performing the search was to establish whether any NEG8 peptides or sequences within the polypeptide encoded by the NEG8 ORF are shared with any other influenza A virus proteins. Table 5 sets out T cell epitopes derived from influenza A virus proteins other than NEG8 that are also comprised in one or more of the NEG8 peptides identified in Examples 1 and 2 or the polypeptide encoded by the NEG8 ORF. From this, numerous NEG8 peptides considered to bind to MHC in cells infected with influenza A virus can be identified based on confidence level, XCorr, and performance of fragment mass spectra.

HLA-A2 = experiment: HLA binding of NEG8 peptides shared with other flu proteins (Table 5), A2; details: score printed after 'A2:'; no method or unit given
Text: as §1

MHC class I = assay type: cell-based
HLA-B7 = experiment: HLA binding of NEG8 peptides shared with other flu proteins (Table 5), B7; details: score printed after 'B7:'; no method or unit given
Text: as §1

Sequence | HLA binding A24 (HLA-A24) | HLA binding A2 (HLA-A2) | found in influenza A virus-infected cells (MHC class I) | HLA binding B7 (HLA-B7)
AILSLQTFD (Influenza A virus) | A24:2 | – | – | –
LFLICVSLL (Influenza A virus) | A24:21 | A2:18 | – | –
AFSVMFLSM | A24:7 | – | – | –
LMQRGPSTF (Influenza A virus) | – | – | truly found in influenza A virus-infected cells | –
KITLKFAFNMM (Influenza A virus) | – | – | truly found in influenza A virus-infected cells | –
FLICVSPLQL (Influenza A virus) | A24:13 | A2:24 | – | –
ALSSIRVSS (Influenza A virus) | – | A2:16 | – | B7:7
AFNMMFLSM | A24:7 | A2:10 | – | –
IAPSSVKALS (Influenza A virus) | – | – | truly found in influenza A virus-infected cells | –
SPLQLAILSL (Influenza A virus) | – | – | – | B7:22
